The values below come from patent publication US11767296B2, “Heteroaryl compounds as kinase inhibitor” (FUJIAN HAIXI PHARMACEUTICALS CO., LTD, priority 2018, dated 2023).

A value given as a limit tells only on which side of the number the result lay.

In one assay the test system is NFS-60 cells. The assay can be described thus: NFS-60 cell assay (CCK proliferation, M-CSF stimulated). In kind it is cell-based. Particulars: Mus musculus, compound 0.5 uM, 72 h, 40 ng/mL M-CSF, read-out: inhibition ratio % (NFS-60 cell proliferation). As to the method: Example 54: NFS-60 Cell Assay
1. Experimental Materials
Mouse Myelogenous Leukemia Cells (NFS-60)
Using DMSO to dissolve, and the required concentration was prepared with full culture medium without factors.
Penicillin-streptomycin: TRANS
Mouse M-CSF/CSF-1 Protein: Sino Biological Inc, No. 51112-MNAH
M-CSF: Qilu Pharmaceutical co., Ltd.
The logarithmic growth phase of NFS-60 cells (1640+10% FBS+40 ng/ml M-CSF+1% Penicillin-streptomycin) were centrifuged (1000 r/min) and cultured in a factor-free medium at 37° C., 5% CO2 for 24 hours. Centrifugating (1000 r/min), the culture medium was replaced by new culture medium including 40 ng/mL factors, and inoculated on 96-well plate by 2*10^4 cells/mL, 100 μL/hole. After 16 hours, the tested compounds were added 10 μL/hole, 3 duplicate holes per compound, 37° C., 5% CO2, continue to cultured for 72 h. Then 10 μL CCK reagent was added to each hole. After incubation for 4 hours, the absorbance of each hole was measured at 450 nm wavelength. According to Formula: Inhibitory rate (%)=(1-OD value of test pore/OD value of solvent control pore)×100% 3. Experimental Results The experimental results of the inhibition of NFS-60 cell proliferation by the compounds prepared in Example 3-52, 0.5 uM, are shown in the following table: […]

In the next assay the target is T1, CSF-1R (Homo sapiens, UniProt P07333).
T1 construct: purchased Invitrogen PV3249
The assay can be described thus: CSF-1R kinase assay (HTRF kinEASE TK). In kind it is biochemical. The note with it: ATP 2.5 uM, enzyme 0.012 ng/ul, read-out: In vitro inhibitory activity of CSF-1R IC50. As to the method:
Example 53: CSF-1R Kinase Assay
I. Materials and Instruments
• 2104 EnVision® Multilabel Reader (PerkinElmer) • OptiPlate-384, White Opaque 384-well MicroPlate (Cat.6007290, PerkinElmer) • HTRF kinEASE TK (Cat.62TKOPEC, Cisbio) • CSF-1R(Cat. PV3249, Invitrogen) • ATP 10 mM (Cat. PV3227, Invitrogen) • DTT 1 M (Cat. D5545, Sigma) • MgCl2 1 M (Cat. M8266, Sigma) • MnCl2 1 M (Cat.244589. Sigma)
II. Experimental Procedure
Substrate-TK and ATP were diluted to 5 times of the reaction concentration by 1×Kinase Buffer. CSF1R enzyme was diluted to 5×enzyme solution by 1×kinase buffer. Sa-XL665 was diluted to 4×Sa-XL665 solution by Detection Buffer. 100×TK-Ab-Cryptate Solution TK-Ab-Cryptate was diluted to 100×TK-Ab-Cryptate solution by Detection Buffer. 2. Experimental Procedure After all reagents had been prepared according to the above method, except enzymes, the sample was added after equilibrium to room temperature. • a. Firstly, 2.5% DMSO solution was prepared by using 1×kinase buffer (the high concentration of DMSO will affect the reaction and control the final concentration of DMSO to 1%). Then the compounds were diluted by 2.5% DMSO solution corresponding to the enzyme. The screening concentration of the compounds was 4 times gradient dilution from 1000 nM, and 8 concentrations. In addition to the control pore, 4 microlitres of diluted solution containing 2.5% DMSO were added to the reaction pore and 4 microlitres of previously prepared solution containing 2.5% DMSO were added to the control pore. • b. 2 microlitres of previously prepared TK-biotin substrate solution was added to all reaction pore (the amount of substrate used for enzyme screening is shown in Table 15). • c. Adding 2 microlitres of CSF1R enzyme solution of corresponding concentration (the amount of enzyme is shown in Table 15) to all reaction pore except negative pore. The negative pore is supplemented with 2 microlitres of enzyme corresponding to 1 xkinase buffer. After mixing, the compound and enzyme can be fully combined by incubating at room temperature for 10 minutes. • d. Enzyme reaction was initiated by adding 2 microlitres ATP solution of corresponding concentration to all reaction pore. The reaction time was 30 minutes (the corresponding ATP concentration and reaction time at enzyme screening were shown in Table 15). • e. Preparing the test solution 5 minutes before the end of kinase reaction. Streptavidin-XL665 and TK antibody europium cryptate (1:100) were prepared with detection buffer in the kit (the corresponding concentration of detection reagent for enzyme screening is shown in Table 15). • f. After the kinase reaction, 5 microlitres of diluted Streptavidin-XL665 were added to all reaction pore, mixing, and then the diluted TK antibody europium cryptate solution was added immediately. • g. After 1 hour reaction at room temperature, the fluorescence signals (320 nm stimulation, 665 nm, 615 nm emission) were detected by ENVISION (Perkinelmer) instrument. The inhibition rate of each pore was calculated by full active pore and background signal pore, and the average value of complex pore was obtained. Meanwhile, the half inhibitory activity (IC50) of each compound was fitted by professional drawing analysis software PRISM 5.0. The Flow Chart of the Experiment is as Follows:
3. Data Analysis Emission Ratio (ER)=665 nm Emission signal/615 nm Emission signal Inhibitory rate=(ERpositive−ERsample)/(ERpositive−ERnegative)*100% Using Graphpad Prism 5 and log (inhibitor) vs. normalized response to fit IC50 curve and calculate IC50 value. The IC50 data of the compounds prepared in Representative Examples 3-52 are as follows (Table 18): […]

One may read the IC50 as the point on the concentration scale where inhibition reaches its midpoint.

T1 sequence (P07333 20-972): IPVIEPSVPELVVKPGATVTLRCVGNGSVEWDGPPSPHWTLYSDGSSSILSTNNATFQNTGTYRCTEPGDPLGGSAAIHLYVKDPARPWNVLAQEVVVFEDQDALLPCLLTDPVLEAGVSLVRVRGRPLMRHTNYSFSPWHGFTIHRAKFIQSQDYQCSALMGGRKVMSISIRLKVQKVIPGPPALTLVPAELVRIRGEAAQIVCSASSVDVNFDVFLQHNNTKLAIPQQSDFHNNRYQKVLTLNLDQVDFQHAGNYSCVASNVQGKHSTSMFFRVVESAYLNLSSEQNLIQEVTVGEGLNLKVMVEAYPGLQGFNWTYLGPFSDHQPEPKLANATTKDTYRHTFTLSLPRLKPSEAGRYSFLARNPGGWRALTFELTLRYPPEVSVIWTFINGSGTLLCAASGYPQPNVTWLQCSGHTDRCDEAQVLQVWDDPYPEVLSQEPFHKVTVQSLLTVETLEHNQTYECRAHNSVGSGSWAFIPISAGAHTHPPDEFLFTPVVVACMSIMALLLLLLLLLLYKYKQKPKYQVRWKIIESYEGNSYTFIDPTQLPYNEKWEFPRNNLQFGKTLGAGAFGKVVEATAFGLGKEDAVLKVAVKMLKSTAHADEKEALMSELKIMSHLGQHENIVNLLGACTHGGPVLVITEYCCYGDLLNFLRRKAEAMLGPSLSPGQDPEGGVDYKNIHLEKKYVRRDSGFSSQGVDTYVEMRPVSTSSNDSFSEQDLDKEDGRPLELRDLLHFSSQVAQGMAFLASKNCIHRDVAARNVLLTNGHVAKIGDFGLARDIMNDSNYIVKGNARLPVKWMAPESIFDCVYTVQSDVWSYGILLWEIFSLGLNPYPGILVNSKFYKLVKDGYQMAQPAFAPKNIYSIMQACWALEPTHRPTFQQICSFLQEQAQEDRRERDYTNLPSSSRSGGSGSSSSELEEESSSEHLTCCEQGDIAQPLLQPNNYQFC

In the case of `C[C@@H](Oc1cc(-c2cccnc2)cnc1N)c1cccc(NC(=O)c2cccc(N(C)C)c2)c1` [Compound 205, (R)-N-(3-(1-((6-amino-[3,3′-bipyridin]-5-yl)oxy)ethyl)phenyl)-3-(dimethylamino)benzamide], the inhibition at 0.5 µM in the assay with NFS-60 cells is no less than 50%. For the same compound, at CSF-1R, the half-maximal inhibitory concentration (IC50) is no more than 50 nM. On to `C[C@@H](Oc1cc(Cl)cnc1N)c1cccc(NC(=O)c2ccc3c(c2)S(=O)(=O)CC3)c1` [Compound 134, (R)-N-(3-(1-((2-amino-5-chloropyridin-3-yl)oxy)ethyl)-phenyl)-2,3-dihydrobenzo[b]thiophene-6-carboxamide 1,1-dioxide], for which the inhibition at 0.5 µM with NFS-60 cells was no less than 50%. Further, at CSF-1R, the IC50 is no more than 50 nM. Turning to `C[C@@H](Oc1cc(-c2cccnc2)cnc1N)c1cccc(NC(=O)c2cccc(C3CC3)c2)c1` [Compound 200, (R)-N-(3-(1-((6-amino-[3,3′-bipyridin]-5-yl)oxy)ethyl)phenyl)-3-cyclopropylbenzamide], in the assay on NFS-60 cells, the inhibition at 0.5 µM is no less than 50%. As to `Cc1ccc(C(=O)Nc2cccc([C@@H](C)Oc3cc(Cl)cnc3N)c2)cc1C` [Compound 132, (R)-N-(3-(1-((2-amino-5-chloropyridin-3-yl)oxy)ethyl)-phenyl)-3,4-dimethylbenzamide], the inhibition at 0.5 µM in the assay on NFS-60 cells was no less than 50%. Also, the IC50 on CSF-1R is no more than 50 nM. Regarding `CSc1ccc(C(=O)Nc2cccc([C@@H](C)Oc3cc(-c4cnn(C)c4)cnc3N)c2)cc1` [Compound 181, (R)-N-(3-(1-((2-amino-5-(1-methyl-1H-pyrazol-4-yl)pyridin-3-yl)oxy)ethyl)phenyl)-4-(methylthio)benzamide], the inhibition at 0.5 µM in the assay with NFS-60 cells is no less than 50%. Further, the IC50 at CSF-1R is no more than 50 nM. With `C[C@@H](Oc1cc(-c2cnn(C3CC3)c2)cnc1N)c1cccc(NC(=O)c2cccc(N(C)C)c2)c1` [Compound 212, (R)-N-(3-(1-((2-amino-5-(1-cyclo-propyl-1H-pyrazol-4-yl)pyridin-3-yl)oxy)ethyl)phenyl)-3-(dimethyl-amino)benzamide], the inhibition at 0.5 µM in the assay with NFS-60 cells was no less than 50%. Regarding `C[C@@H](Oc1cc(-c2cnn(C)c2)cnc1N)c1cccc(NC(=O)c2cccc(S(C)(=O)=O)c2)c1` [Compound 168, (R)-N-(3-(1-((2-amino-5-(1-methyl-1H-pyrazol-4-yl)pyridin-3-yl)oxy)ethyl)phenyl)-3-(methylsulfonyl)benzamide], in the assay on NFS-60 cells, the inhibition at 0.5 µM is no less than 50%. As to `C[C@H](Oc1cc(Cl)cnc1N)c1cccc(NC(=O)c2cccc(C3CC3)c2)c1` [Compound 70, (S)-N-(3-(1-((2-amino-5-chloropyridin-3-yl)oxy)ethyl)-phenyl)-3-cyclopropylbenzamide], the inhibition at 0.5 µM in the assay with NFS-60 cells was no less than 50%.

With `Cc1ccc(C(=O)Nc2cccc([C@@H](C)Oc3cc(-c4cccnc4)cnc3N)c2)cc1N(C)C` [Compound 206, (R)-N-(3-(1-((6-amino-[3,3′-bipyridin]-5-yl)oxy)ethyl)phenyl)-3-(dimethylamino)-4-methylbenzamide], in the assay on NFS-60 cells, the inhibition at 0.5 µM is no less than 50%. In addition, the IC50 on CSF-1R was no more than 50 nM. Consider `C[C@@H](Oc1cc(-c2cccnc2)cnc1N)c1cccc(NC(=O)c2cccc(S(C)(=O)=O)c2)c1` [Compound 199, (R)-N-(3-(1-((6-amino-[3,3′-bipyridin]-5-yl)oxy)ethyl)phenyl)-3-(methylsulfonyl)benzamide], for which the inhibition at 0.5 µM in the assay on NFS-60 cells is no less than 50%.

Consider `C[C@@H](Oc1cc(Cl)cnc1N)c1cccc(NC(=O)c2cc(C(F)(F)F)cc(S(C)(=O)=O)c2)c1` [Compound 150, (R)-N-(3-(1-((2-amino-5-chloropyridin-3-yl)oxy)ethyl)-phenyl)-3-(methylsulfonyl)-5-(trifluoromethyl)benzamide], for which the inhibition at 0.5 µM in the assay on NFS-60 cells was no less than 50%.

Take `Cc1cccc(C(=O)Nc2cccc([C@H](C)Oc3cc(Cl)cnc3N)c2)c1` [Compound 54, (S)-N-(3-(1-((2-amino-5-chloropyridin-3-yl)oxy)ethyl)-phenyl)-3-methylbenzamide]: in the assay on NFS-60 cells, the inhibition at 0.5 µM fell in the range of 10 to 50%. Further, at CSF-1R, the half-inhibitory concentration (IC50) was no more than 50 nM. As to `COc1cccc(C(=O)Nc2cccc([C@@H](C)Oc3cc(Cl)cnc3N)c2)c1` [Compound 74, (R)-N-(3-(1-((2-amino-5-chloropyridin-3-yl)oxy)ethyl)-phenyl)-3-methoxybenzamide], in the assay with NFS-60 cells, the inhibition at 0.5 µM was no less than 50%. The IC50 on CSF-1R is no more than 50 nM.

Consider `Cc1ccc(C(=O)Nc2cccc([C@@H](C)Oc3cc(Cl)cnc3N)c2)cc1S(C)(=O)=O` [Compound 126, (R)-N-(3-(1-((2-amino-5-chloropyridin-3-yl)oxy)ethyl)-phenyl)-4-methyl-3-(methylsulfonyl)benzamide], for which the inhibition at 0.5 µM with NFS-60 cells was no less than 50%. As to `C[C@@H](Oc1cc(-c2cnn(C)c2)cnc1N)c1cccc(NC(=O)c2cccc(C(F)(F)F)c2)c1` [Compound 169, (R)-N-(3-(1-((2-amino-5-(1-methyl-1H-pyrazol-4-yl)pyridin-3-yl)oxy)ethyl)phenyl)-3-(trifluoromethyl)benzamide], the inhibition at 0.5 µM in the assay with NFS-60 cells was no less than 50%. As to `CSc1cccc(C(=O)Nc2cccc([C@@H](C)Oc3cc(-c4cnn(C)c4)cnc3N)c2)c1` [Compound 180, (R)-N-(3-(1-((2-amino-5-(1-methyl-1H-pyrazol-4-yl)pyridin-3-yl)oxy)ethyl)phenyl)-3-(methylthio)benzamide], the inhibition at 0.5 µM with NFS-60 cells was no less than 50%. For the same compound, the concentration for half-maximal inhibition (IC50) at CSF-1R was no more than 50 nM. For `C[C@@H](Oc1cc(-c2cnn(C)c2)cnc1N)c1cccc(NC(=O)c2cccc([S+](C)[O-])c2)c1` (stereo partly drawn) [Compound 367, N-(3-((R)-1-((2-amino-5-(1-methyl-1H-pyrazol-4-yl)pyridin-3-yl)oxy)ethyl)phenyl)-3-(methylsulfinyl)benzamide], the inhibition at 0.5 µM with NFS-60 cells is no less than 50%. Also, the IC50 at CSF-1R is no more than 50 nM.
